Data on 4 compounds can be found in patent US20240382540A1, “MODULATION OF FUSOBACTERIUM VARIUM TO PREVENT BOVINE LIVER ABSCESSES AND IMPROVE CATTLE PERFORMANCE” (priority 2023, published 2024).

Experiment [1] concerns F. varium. Description: Rumen fluid enrichment cultures with lactate. In kind it is cell-based, Fusobacterium varium. The settings on record: lactate present in rumen fluid enrichment cultures. The text has this: Microbial lactate utilization is linked to several pathogenic mechanisms. […] Currently it is unknown if some or all cattle-associated F. varium strains are able to derive energy from lactate. […] Thus, it is possible that the acquisition of this or a similar mobile genetic element has provided some bovine F. varium strains with the capability of utilizing lactate as a source of energy and a means for avoiding host immunity.
This identification was based on 16S rRNA sequencing using close to the full-length gene (27F/1492R primers), a reliable method for determining bacterial species (FIG. 1).

The subject of experiment [2] is Fusobacterium necrophorum. To be noted: grain-fed cattle; antibiotic as component of cattle feed; cited from earlier work.
Experiment [3] relates to F. varium. Description: Antimicrobial susceptibility testing: growth of F. varium strains exposed to tylosin and monensin. Format: cell-based, Fusobacterium varium. To be noted: for growth inhibition: all tested F. varium strains. The source says:
(§1) In an effort to understand the differential response of Fusobacterium species to antimicrobial agents commonly used in livestock, we examined the effect of tylosin and monensin on the growth of reference strains and newly isolated strains of F. varium and F. necrophorum.
(§2) To set up the experiment, we exposed three strains each of F. varium and F. necrophorum to tylosin and monensin at concentrations relevant to ruminal environments.

In the next experiment the test system is F. necrophorum. The experiment is described as follows: Antimicrobial susceptibility testing: growth of F. necrophorum strains exposed to tylosin and monensin. Format: cell-based, Fusobacterium necrophorum. The settings on record: for decline/reduction in growth: F. necrophorum strain 8L1; for growth inhibition: all three F. necrophorum strains tested.
Excerpt: as §1, §2
Strains A and 8L1 were most affected, with both displaying a 98% reduction in growth. […] In this context, growth reductions of 44-66% were observed (P<0.05).

Where [4] appears, read: concentrations relevant to ruminal environments.

On to `CC(O)C(=O)O` (stereo not drawn) [lactate], for which, in the experiment with F. varium [1], the “enrichment of native F. varium strains” value is recorded as “up to 35,000 fold”.
With virginiamycin, the “ruminal concentrations of Fusobacterium necrophorum” value in experiment [2] was “significantly reduced”.
On to `CC[C@H]1OC(=O)C[C@@H](O)[C@H](C)[C@@H](O[C@@H]2O[C@H](C)[C@@H](O[C@H]3C[C@@](C)(O)[C@@H](O)[C@H](C)O3)[C@H](N(C)C)[C@H]2O)[C@@H](CC=O)C[C@@H](C)C(=O)/C=C/C(C)=C/[C@@H]1CO[C@@H]1O[C@H](C)[C@@H](O)[C@@H](OC)[C@H]1OC` [tylosin], for which the “ruminal concentrations of Fusobacterium necrophorum” value in experiment [2] is on record as “significantly reduced”. Moreover, the results for the growth inhibition entry in the experiment on F. varium [3] (setting [4]) and with F. necrophorum were “none of the tested strains exhibited substantial growth inhibition” and “over 67%”, respectively. For the same compound, the decline in growth was 13% in the experiment on F. varium [3] (strain F. varium DNLA-8, concentrations relevant to ruminal environments) and 94% in the experiment on F. necrophorum (F. necrophorum strain FNA). In addition, the decline/reduction in growth in the experiment with F. necrophorum is 92%.
Regarding `CC[C@@]1([C@@H]2O[C@@H]([C@H]3O[C@@](O)(CO)[C@H](C)C[C@@H]3C)C[C@@H]2C)CC[C@H]([C@]2(C)CC[C@]3(C[C@H](O)[C@@H](C)[C@@H]([C@@H](C)[C@@H](OC)[C@H](C)C(=O)O)O3)O2)O1` [monensin], in the experiment on F. varium [3] (F. varium bovine isolates, concentrations relevant to ruminal environments), the decrease in growth was 15%. Further, the growth inhibition entry in the experiment with F. varium [3] (setting [4]) is listed as “did not show substantial growth inhibition”. Also, the growth response result in the experiment with F. varium [3] (reference strain F. varium NCTC 10560) was “no significant response”. In the experiment with F. necrophorum, the decline/reduction in growth came to 98% and the growth inhibition result was “more than 87%”. This compound also registered a reduction in growth in the experiment on F. necrophorum (F. necrophorum strain A) of 98%. For the same compound, in the experiment on F. necrophorum (F. necrophorum, medium containing only casein pancreatic digest and yeast extract as carbon sources), the growth reduction is 44-66%.
